IC50 data for 18 molecules are collected here from patent US11685747B2, “Compounds that inhibit MCL-1 protein” (AMGEN INC., priority 2014, dated 2023).

The target in one test is T1, recombinant human Mcl-1 (Homo sapiens, UniProt Q07820).
T1 construct: C-terminally 6×His tagged Mcl-1 containing residues 171-327; made in house
The test is described as follows: Cell free Mcl-1:Bim affinity assay (Mcl-1 HTRF, TR-FRET). It is filed as binding. Conditions: inhibition of Mcl-1/Bim interaction. How it is done:
Cell Free Mcl-1:Bim Affinity Assay (Mcl-1 HTRF)
The inhibition of the Mcl-1/Bim interaction was measured using a time-resolved fluorescence resonance energy transfer (TR-FRET) assay. […] A biotinylated peptide derived from human Bim (residues 51-76) was purchased from CPC Scientific (San Jose, Calif.). The TR-FRET assay was conducted in a 384-well white OptiPlate™ (PerkinElmer, Waltham, Mass.) in a total volume of 40 μL. […] The reaction plates were further incubated overnight and then were read on an Envision® multimode reader (PerkinElmer). […] The IC50 values of test compounds were determined from duplicate data by analyzing competition curves using a four-parameter sigmoidal model in GraphPad Prism (GraphPad Software, San Diego, Calif.) or in Genedata Screener® (Genedata, Basel, Switzerland).

In a further test the test system is OPM-2. The test is described as follows: Cell viability assay (OPM-2 10 FBS, CellTiter-Glo). It counts as cell-based, human. Conditions: OPM-2 cells. How it is done: Cell Viability Assay (OPM-2 10 FBS)
Cells were seeded into 384-well plates at 3000 cells/well density in complete growth medium containing 10% FBS, and incubated for 16 h with serially diluted test compounds in a 37° C. incubator with 5% CO2. Cell viability was tested using CellTiter-Glo® assay (Promega, Madison, Wis.) according to the manufacturer recommendations. Luminescence was determined using an EnVision® Multilabel plate reader 25 min after the addition of detection reagent. IC50 values were then calculated with Xlfit using a logistical 4-parameter fit model in GraphPad Prism (GraphPad Software, San Diego, Calif.) or in Genedata Screener® (Genedata, Basel, Switzerland).
(ATP-based viability assays read luminescence as a measure of living cells.)

For test [1], the target named is T2, Mcl-1/Bak protein-protein interactions (Homo sapiens, UniProt Q07820).
T2 construct: expressed in transfected cells; host or cells: HEK 293 M cells, transient transfection
T2 sequence (Q07820 whole entry): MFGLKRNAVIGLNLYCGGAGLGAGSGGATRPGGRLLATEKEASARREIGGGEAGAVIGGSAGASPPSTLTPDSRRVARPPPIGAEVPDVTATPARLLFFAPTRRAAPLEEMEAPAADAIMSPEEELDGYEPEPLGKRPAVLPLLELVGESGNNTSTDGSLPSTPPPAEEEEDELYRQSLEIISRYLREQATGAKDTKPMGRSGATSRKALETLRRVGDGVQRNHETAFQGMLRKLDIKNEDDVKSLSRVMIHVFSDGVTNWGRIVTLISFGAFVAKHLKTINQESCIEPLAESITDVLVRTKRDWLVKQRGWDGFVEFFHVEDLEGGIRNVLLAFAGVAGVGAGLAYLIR
The test is described as follows: Cell-based split luciferase complementation assay. Conditions: HEK 293 M cells, serum-free, 4 h. As for the experimental part:
Cell-Based Assay (Split Luciferase)
A split luciferase complementation assay was developed to determine the inhibition of Mcl-1/Bak protein-protein interactions in cells. […] Transient transfection was performed using Lipofectamine® LTX/Plus™ reagent (Life Technologies, Grand Island, N.Y.). 24 h after transfection, cells were collected using non-enzyme based cell dissociation buffer StemPro® Accutase® (Life Technologies), and resuspended in serum-free Opti-MEM® (Life Technologies). Cells were then seeded into assay plates with serially diluted test compounds in 0.3% DMSO at density of a 5000 cells/well. Cells were then incubated for 4 h at 37° C. in a cell culture incubator supplement with 5% CO2. Test plates were equilibrated to room temperate for 30 min before addition of 30 μL Steady-Glo® Luciferase assay reagent (Promega, Madison, Wis.) into each test well. Luminescence was determined using an EnVision® Multilabel plate reader 25 min after the addition of detection reagent. IC50 values were then calculated with Xlfit using a logistical 4-parameter fit model in GraphPad Prism (GraphPad Software, San Diego, Calif.) or in Genedata Screener® (Genedata, Basel, Switzerland).

The IC50 is the concentration at which inhibition is half-maximal.

T1 sequence (Q07820 171-327): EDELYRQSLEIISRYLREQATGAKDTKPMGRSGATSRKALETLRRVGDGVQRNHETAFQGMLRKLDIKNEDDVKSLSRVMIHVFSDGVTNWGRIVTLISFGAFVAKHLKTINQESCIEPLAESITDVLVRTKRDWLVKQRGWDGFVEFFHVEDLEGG

Turning to `CC[C@H]1C/C=C/[C@H](O)[C@@H]2CC[C@H]2CN2C[C@@]3(CCCc4cc(Cl)ccc43)COc3ccc(cc32)C(=O)NS(=O)(=O)C1` (single isomer, unassigned) [Example 34], the half-inhibitory concentration (IC50) was determined as 0.437 nM on recombinant human Mcl-1; 253 nM in the test on OPM-2 (Homo sapiens, OPM-2, 16 h); 37.7 nM in test [1].
On the same counts, the results for `COCCO[C@H]1/C=C/C[C@@H](C)[C@@H](C(C)C)S(=O)(=O)NC(=O)c2ccc3c(c2)N(C[C@@H]2CC[C@H]21)C[C@@]1(CCCc2cc(Cl)ccc21)CO3` [Example 54, (1S,3′R,6′R,7′S,8′E,11′R,12′R)-6-Chloro-7′-(2-Methoxyethoxy)-11′-Methyl-12′-(1-Methylethyl)-3,4-Dihydro-2H,15′H-Spiro[Naphthalene-1,22′-[20]Oxa[13]Thia[1,14]Diazatetracyclo[14.7.2.0^3,6.0^19,24]Pentacosa[8,16,18,24]Tetraen]-15′-One 13′,13′-Dioxide] are 0.153 nM, 131 nM and 29.1 nM.
The like results for `CO[C@H]1/C=C/C[C@H](C)[C@@H](C2CC2)S(=O)(=O)NC(=O)c2ccc3c(c2)N(C[C@@H]2CC[C@H]21)C[C@@]1(CCCc2cc(Cl)ccc21)CO3` [Example 48, (1S,3′R,6′R,7′S,8′E,11′S,12′S)-6-Chloro-12′-Cyclopropyl-7′-Methoxy-11′-Methyl-3,4-Dihydro-2H,15′H-Spiro [Naphthalene-1,22′-[20]Oxa[13]Thia[1,14]Diazatetracyclo[14.7.2.0^3,6.0^19,24]Pentacosa[8,16,18,24]Tetraen]-15′-One 13′,13′-Dioxide] were, in that order, 3.89 nM, 5580 nM and 477 nM.
On to `COCCO[C@H]1/C=C/C[C@H](C)CS(=O)(=O)NC(=O)c2ccc3c(c2)N(C[C@@H]2CC[C@H]21)C[C@@]1(CCCc2cc(Cl)ccc21)CO3` (single isomer, unassigned) [Example 78], for which the half-inhibitory concentration (IC50) at recombinant human Mcl-1 was found to be 2.67 nM; with OPM-2 (16 h), 2740 nM; in test [1], 420 nM.
For the molecule `CO[C@H]1CCC[C@H](C)[C@@H](C)S(=O)(=O)NC(=O)c2ccc3c(c2)N(C[C@@H]2CC[C@H]21)C[C@@]1(CCCc2cc(Cl)ccc21)CO3` [Example 7, (1S,3′R,6′R,7′S,11′S,12′R)-6-Chloro-7′-Methoxy-11′,12′-Dimethyl-3,4-Dihydro-2H,15′H-Spiro[Naphthalene-1,22′-[20]Oxa[13]Thia[1,14]Diazatetracyclo[14.7.2.0^3,6.0^19,24]Pentacos A[16,18,24]Trien]-15′-One 13′,13′-Dioxide], the IC50 on recombinant human Mcl-1 came to 1.18 nM; in the test on OPM-2 (Homo sapiens, OPM-2, 16 h) it was 1060 nM; in test [1] it was 147 nM.
In the case of `CC[C@@H]1[C@@H](C)C/C=C/[C@H](O)[C@@H]2CC[C@H]2CN2C[C@@]3(CCCc4cc(Cl)ccc43)COc3ccc(cc32)C(=O)NS1(=O)=O` (single isomer, unassigned) [Example 24], the IC50 was 0.153 nM at recombinant human Mcl-1; 125 nM with OPM-2 (Homo sapiens, OPM-2, 16 h); 20.1 nM in test [1].
On the same counts, the results for `CO[C@H]1/C=C/CC[C@@H](C)S(=O)(=O)NC(=O)c2ccc3c(c2)N(C[C@@H]2CC[C@H]21)C[C@@]1(CCCc2cc(Cl)ccc21)CO3` [Example 13, (1S,3′R,6′R,7′S,8′E,12′R)-6-Chloro-7′-Methoxy-12′-Methyl-3,4-Dihydro-2H,15′H-Spiro[Naphthalene-1,22′-[20]Oxa[13]Thia[1,14]Diazatetracyclo[14.7.2.0^3,6.0^19,24]Pentacos A[8,16,18,24]Tetraen]-15′-One 13′,13′-Dioxide] are 0.441 nM, 353 nM and 34.1 nM.
The like results for `CC[C@@H]1CCCC[C@H](OC)[C@@H]2CC[C@H]2CN2C[C@@]3(CCCc4cc(Cl)ccc43)COc3ccc(cc32)C(=O)NS1(=O)=O` [Example 21, (1S,3′R,6′R,7′S,12′R)-6-Chloro-12′-Ethyl-7′-Methoxy-3,4-Dihydro-2H,15′H-Spiro[Naphthalene-1,22′-[20]Oxa[13]Thia[1,14]Diazatetracyclo[14.7.2.0^3,6.0^19,24]Pentacos A[16,18,24]Trien]-15′-One 13′,13′-Dioxide] were, in that order, 2.78 nM, 4170 nM and 192 nM.
For the molecule `CC(C)C[C@@H]1[C@@H](C)C/C=C/[C@H](O)[C@@H]2CC[C@H]2CN2C[C@@]3(CCCc4cc(Cl)ccc43)COc3ccc(cc32)C(=O)NS1(=O)=O` (single isomer, unassigned) [Example 67], the IC50 at recombinant human Mcl-1 came out at 1.08 nM; with OPM-2 (16 h), 600 nM; in test [1], 84.8 nM.
Turning to `CCCCO[C@H]1/C=C/C[C@H](C)[C@@H](C)S(=O)(=O)NC(=O)c2ccc3c(c2)N(C[C@@H]2CC[C@H]21)C[C@@]1(CCCc2cc(Cl)ccc21)CO3` [Example 73, (1S,3′R,6′R,7′S,8′E,11′S,12′R)-7′-Butoxy-6-Chloro-11′,12′-Dimethyl-3,4-Dihydro-2H,15′H-Spiro[Naphthalene-1,22′ [20]Oxa[13]Thia[1,14]Diazatetracyclo[14.7.2.0^3,6.0^19,24]Pentacos A[8,16,18,24]Tetraen]-15′-One 13′,13′-Dioxide], the IC50 on recombinant human Mcl-1 worked out at 0.367 nM; in the test with OPM-2 (Homo sapiens, OPM-2, 16 h), 174 nM; in test [1], 34.4 nM.
Regarding `COCCO[C@H]1/C=C/C[C@@H](C)CS(=O)(=O)NC(=O)c2ccc3c(c2)N(C[C@@H]2CC[C@H]21)C[C@@]1(CCCc2cc(Cl)ccc21)CO3` (single isomer, unassigned) [Example 77], the figures for the IC50 (at recombinant human Mcl-1; with OPM-2 (16 h); in test [1]) were 6.12 nM, 3160 nM and 260 nM, respectively.
As to `C[C@@H]1C/C=C/[C@H](O)[C@@H]2CC[C@H]2CN2C[C@@]3(CCCc4cc(Cl)ccc43)COc3ccc(cc32)C(=O)NS(=O)(=O)C1` (single isomer, unassigned) [Example 30], the results for the concentration for half-maximal inhibition (IC50) (on recombinant human Mcl-1; in the test on OPM-2 (16 h); in test [1]) were 0.38 nM, 161 nM and 26.5 nM, respectively.
As to `C[C@@H]1[C@@H](C)CCC[C@H](O)[C@@H]2CC[C@H]2CN2C[C@@]3(CCCc4cc(Cl)ccc43)COc3ccc(cc32)C(=O)NS1(=O)=O` [Example 6, (1S,3′R,6′R,7′S,11′S,12′R)-6-Chloro-7′-Hydroxy-11′,12′-Dimethyl-3,4-Dihydro-2H,15′H-Spiro[Naphthalene-1,22′-[20]Oxa[13]Thia[1,14]Diazatetracyclo[14.7.2.0^3,6.0^19,24]Pentacos A[16,18,24]Trien]-15′-One 13′,13′-Dioxide], the IC50 at recombinant human Mcl-1 amounted to 0.447 nM; with OPM-2 (Homo sapiens, OPM-2, 16 h) it was 394 nM; in test [1] it was 57.5 nM.
Turning to `C[C@H]1C/C=C/[C@H](O)[C@@H]2CC[C@H]2CN2C[C@@]3(CCCc4cc(Cl)ccc43)COc3ccc(cc32)C(=O)NS(=O)(=O)[C@@H]1C1CCC1` (single isomer, unassigned) [Example 56], the values for the concentration for half-maximal inhibition (IC50) (at recombinant human Mcl-1; in the test with OPM-2 (16 h); in test [1]) were 0.289 nM, 208 nM and 31.9 nM, respectively.
With `C[C@@H]1CCC[C@H](O)[C@@H]2CC[C@H]2CN2C[C@@]3(CCCc4cc(Cl)ccc43)COc3ccc(cc32)C(=O)NS(=O)(=O)[C@@H]1C` (single isomer, unassigned) [Example 35], the IC50 amounted to 0.955 nM at recombinant human Mcl-1, 723 nM with OPM-2 (16 h) and 84.3 nM in test [1].
On the same counts, the results for `CC(C)[C@@H]1[C@H](C)C/C=C/[C@H](O)[C@@H]2CC[C@H]2CN2C[C@@]3(CCCc4cc(Cl)ccc43)COc3ccc(cc32)C(=O)NS1(=O)=O` (single isomer, unassigned) [Example 49] are 0.317 nM, 184 nM and 46.2 nM.
The like results for `C[C@@H]1C/C=C/[C@H](O)[C@@H]2CC[C@H]2CN2C[C@@]3(CCCc4cc(Cl)ccc43)COc3ccc(cc32)C(=O)NS(=O)(=O)[C@H]1CC1CCC1` (single isomer, unassigned) [Example 63] were, in that order, 0.423 nM, 183 nM and 30.7 nM.
On the same counts, the results for `CO[C@H]1/C=C/C[C@H](C)CS(=O)(=O)NC(=O)c2ccc3c(c2)N(C[C@@H]2CC[C@H]21)C[C@@]1(CCCc2cc(Cl)ccc21)CO3` (single isomer, unassigned) [Example 31] are 5.8 nM, 3560 nM and 543 nM.
